This note sets out measurements from patent publication US11377442B2, “Small molecule agonists and antagonists of NR2F6 activity” (ZANDER THERAPEUTICS, INC., priority 2016, dated 2022).

This test has as its target T1, NR2F6 (Homo sapiens, UniProt P10588).
T1 construct: expressed in transfected cells; also transient transfection
T1 sequence (P10588 1-404): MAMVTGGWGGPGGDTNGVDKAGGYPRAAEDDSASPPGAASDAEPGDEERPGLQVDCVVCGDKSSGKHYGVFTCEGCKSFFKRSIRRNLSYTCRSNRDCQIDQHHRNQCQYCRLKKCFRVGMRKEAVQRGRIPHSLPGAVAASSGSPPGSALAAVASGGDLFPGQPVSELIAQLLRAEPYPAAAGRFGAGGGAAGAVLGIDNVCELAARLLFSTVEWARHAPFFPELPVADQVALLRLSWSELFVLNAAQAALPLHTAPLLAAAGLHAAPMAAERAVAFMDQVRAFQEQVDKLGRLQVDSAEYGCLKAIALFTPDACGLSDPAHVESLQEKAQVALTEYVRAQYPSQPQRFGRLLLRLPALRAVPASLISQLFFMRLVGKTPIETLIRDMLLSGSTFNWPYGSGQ
The experiment in a line: NR2F6 agonist screening, Firefly signal cmpd/DMSO. Type of test: cell-based. Set-up: Firefly NR2F6 full length, cmpd/DMSO (mean) / Firefly F4, cmpd/DMSO (mean): unit of the concentration uncertain. The conditions noted are these: for Firefly/Renilla (NR2F6 stable, clone F4): ratio Firefly/Renilla; for Firefly, NR2F6 stable (clone F4)/pGL4: ratio of Firefly in NR2F6 stable clone F4 to pGL4.

The mark [1] stands for this setting: C11 analogs follow set (Tables 2-10).
The mark [2] stands for this setting: Concentration 2 (unit uncertain).
The mark [3] stands for this setting: Concentration 10 (unit uncertain).
Where [4] appears, read: Concentration 40 (unit uncertain).

For `Cc1cc(C)cc(NC(=O)c2ccc3oc(=O)c(S(=O)(=O)c4ccc(F)cc4)cc3c2)c1` [Compound C176], under setting [1], the “Firefly, cmpd/DMSO repeat 1” value amounted to 3.7 and the “Firefly, cmpd/DMSO repeat 2” value was 9.6.
For `COc1ccc(S(=O)(=O)c2cc3cccc(OC)c3oc2=O)cc1` [Compound C232], under “Table 9”, the “Firefly, cmpd/DMSO repeat 1” value turned out to be 1.0 and the “Firefly, cmpd/DMSO repeat 2” value is recorded as 0.9.
On to `COc1cc(Br)cc2cc(S(=O)(=O)c3ccc(C(C)(C)C)cc3)c(=O)oc12` [Compound C297], for which, for the setting “Table 11”, the “Firefly, cmpd/DMSO repeat 1” value was found to be 1.5 and the “Firefly, cmpd/DMSO repeat 2” value worked out at 2.6.
Regarding `CCOc1cccc2cc(S(=O)(=O)c3ccc(Cl)c(Cl)c3)c(=O)oc12` [Compound C246], for the setting “Table 9”, the “Firefly, cmpd/DMSO repeat 1” value was found to be 7.4 and the “Firefly, cmpd/DMSO repeat 2” value worked out at 6.5.
For `COc1cccc2cc(S(=O)(=O)c3ccc(Br)cc3)c(=O)oc12` [Compound C233], in that order: 2.8 and 2.1.
As for `O=c1oc2ccc([N+](=O)[O-])cc2cc1S(=O)(=O)c1ccccc1` [Compound C210], under setting [1], the “Firefly, cmpd/DMSO repeat 1” value was found to be 22.8 and the “Firefly, cmpd/DMSO repeat 2” value was 14.3. For the same compound, for the setting “Table 13”, the “Firefly/Renilla (NR2F6 stable, clone F4)” value stood at 1.5; the “Firefly, NR2F6 stable (clone F4)/pGL4” value came to 8.2; the “Firefly, cmpd/DMSO repeat 1” value turned out to be 22.8; the “Firefly, cmpd/DMSO repeat 2” value was determined as 14.3.
On to `N#Cc1cccc(S(=O)(=O)c2cc3cc(Br)ccc3oc2=O)c1` [Compound C196], for which, under setting [1], the “Firefly, cmpd/DMSO repeat 1” value was determined as 3.8 and the “Firefly, cmpd/DMSO repeat 2” value is recorded as 3.4.
As to `COc1ccccc1-c1noc(COc2nccc(C)n2)n1` [Compound Z149], the “Firefly, cmpd/DMSO (mean)” value is 1.5.
In the case of `COc1ccc2oc(=O)c(S(=O)(=O)c3ccc(C(C)(C)C)cc3)cc2c1` [Compound C209], under setting [1], the “Firefly, cmpd/DMSO repeat 1” value stood at 3.1 and the “Firefly, cmpd/DMSO repeat 2” value is listed as 4.2. Also, for the setting “Table 13”, the “Firefly/Renilla (NR2F6 stable, clone F4)” value is listed as 3.6; the “Firefly, NR2F6 stable (clone F4)/pGL4” value was 3.1; the “Firefly, cmpd/DMSO repeat 1” value turned out to be 3.1; the “Firefly, cmpd/DMSO repeat 2” value was 4.2.
As for `O=c1oc2ccc(Cl)cc2cc1S(=O)(=O)c1cccc(Cl)c1` [Compound C191], under setting [1], the “Firefly, cmpd/DMSO repeat 1” value was 8.6 and the “Firefly, cmpd/DMSO repeat 2” value is 12.8.
As to `O=C(NCCc1ccccc1)c1ccc2oc(=O)c(S(=O)(=O)c3ccccc3)cc2c1` [Compound C111], under setting [1], the “Firefly, cmpd/DMSO repeat 1” value came out at 29.8 and the “Firefly, cmpd/DMSO repeat 2” value is 35.9. Further, where the note is “Table 13”, the “Firefly/Renilla (NR2F6 stable, clone F4)” value was determined as 1.1; the “Firefly, NR2F6 stable (clone F4)/pGL4” value is reported as 8.7; the “Firefly, cmpd/DMSO repeat 1” value is 29.8; the “Firefly, cmpd/DMSO repeat 2” value worked out at 35.9.
With `Cc1ccc2oc(=O)c(S(=O)(=O)c3cccc(C#N)c3)cc2c1` [Compound C299], under “Table 12”, the “Firefly/Renilla (NR2F6 stable, clone F4)” value was 4.0; the “Firefly, NR2F6 stable (clone F4)/pGL4” value amounted to 10.1; the “Firefly, cmpd/DMSO repeat 1” value was 21.5; the “Firefly, cmpd/DMSO repeat 2” value came out at 15.2.
Consider `COc1ccc2cc(S(=O)(=O)c3ccc(Br)cc3)c(=O)oc2c1` [Compound C267], for which, under setting [1], the “Firefly, cmpd/DMSO repeat 1” value worked out at 1.4 and the “Firefly, cmpd/DMSO repeat 2” value is on record as 1.7.
On the same counts, the results for `COc1ccc2cc(S(=O)(=O)c3ccc(OC)c(OC)c3)c(=O)oc2c1` [Compound C274] are 3.3 and 3.5.
On the same counts, the results for `COc1ccc(S(=O)(=O)c2cc3cc(F)ccc3oc2=O)cc1` [Compound C214] are 1.9 and 1.9.
As to `COc1ccc(S(=O)(=O)c2cc3ccc(OC)cc3oc2=O)cc1` [Compound C266], under setting [1], the “Firefly, cmpd/DMSO repeat 1” value is on record as 0.9 and the “Firefly, cmpd/DMSO repeat 2” value was 1.2.
On to `Cc1cc(C)c(S(=O)(=O)NCc2nc3nc(C)cc(C)n3n2)c(C)c1` [Compound E10], for which the “Firefly F4, cmpd/DMSO (mean)” value runs as follows: under setting [2], 1.1; under setting [3], 1.0; under setting [4], 0.8. Moreover, the “Firefly NR2F6 full length, cmpd/DMSO (mean)” value runs as follows: under setting [2], 1.3; under setting [3], 1.5; under setting [4], 1.1.
For the compound `COc1ccc2oc(=O)c(S(=O)(=O)c3ccc(OC)c(OC)c3)cc2c1` [Compound C156], under setting [1], the “Firefly, cmpd/DMSO repeat 1” value is 1.0 and the “Firefly, cmpd/DMSO repeat 2” value is 1.0.
Take `CCOc1cccc2cc(S(=O)(=O)c3ccc(C(C)(C)C)cc3)c(=O)oc12` [Compound C240]: under “Table 9”, the “Firefly, cmpd/DMSO repeat 1” value was 1.5 and the “Firefly, cmpd/DMSO repeat 2” value is recorded as 0.9.
As to `COc1ccccc1-c1noc(Cn2ncc(C)cc2=O)n1` [Compound Z150], the “Firefly, cmpd/DMSO (mean)” value was determined as 1.0.
Same read-out and setting: the figure for `COc1ccccc1-c1noc(Cn2ncc(Cl)cc2=O)n1` [Compound Z135] is 1.0.
Take `Cc1cc(S(=O)(=O)c2cc3cc(Cl)ccc3oc2=O)ccc1F` [Compound C224]: under setting [1], the “Firefly, cmpd/DMSO repeat 1” value is reported as 6.6 and the “Firefly, cmpd/DMSO repeat 2” value was 11.4.
As for `COc1cccc2cc(S(=O)(=O)c3cccc(Cl)c3)c(=O)oc12` [Compound C255], under “Table 9”, the “Firefly, cmpd/DMSO repeat 1” value was 1.5 and the “Firefly, cmpd/DMSO repeat 2” value is 1.5.
For the compound `COc1ccc(S(=O)(=O)c2cc3cc(F)cc(F)c3oc2=O)cc1` [Compound C289], under “Table 11”, the “Firefly, cmpd/DMSO repeat 1” value was 31.3 and the “Firefly, cmpd/DMSO repeat 2” value was found to be 15.6. Moreover, for the setting “Table 12”, the “Firefly/Renilla (NR2F6 stable, clone F4)” value was found to be 2.0; the “Firefly, NR2F6 stable (clone F4)/pGL4” value is on record as 15.3; the “Firefly, cmpd/DMSO repeat 1” value is 31.3; the “Firefly, cmpd/DMSO repeat 2” value is recorded as 15.6.
Regarding `Cc1ccc(NC(=O)c2ccc3oc(=O)c(S(=O)(=O)c4ccc(Cl)cc4)cc3c2)cc1C` [Compound C170], under setting [1], the “Firefly, cmpd/DMSO repeat 1” value is given as 1.7 and the “Firefly, cmpd/DMSO repeat 2” value was determined as 1.6.
Regarding `Cc1ccc(S(=O)(=O)c2cc3cc(C(=O)Nc4cccc(C)c4C)ccc3oc2=O)cc1` [Compound C134], under setting [1], the “Firefly, cmpd/DMSO repeat 1” value came to 38.1 and the “Firefly, cmpd/DMSO repeat 2” value is on record as 31.9. Also, where the note is “Table 12”, the “Firefly/Renilla (NR2F6 stable, clone F4)” value worked out at 1.8; the “Firefly, NR2F6 stable (clone F4)/pGL4” value came to 7.7; the “Firefly, cmpd/DMSO repeat 1” value is listed as 38.1; the “Firefly, cmpd/DMSO repeat 2” value stood at 31.9.
Regarding `CCN(CC)c1ccc2cc(S(=O)(=O)c3ccc(C)cc3)c(=O)oc2c1` [Compound C277], under setting [1], the “Firefly, cmpd/DMSO repeat 1” value is reported as 3.4 and the “Firefly, cmpd/DMSO repeat 2” value stood at 2.9.
As for `COc1ccccc1NC(=O)c1ccc2oc(=O)c(S(=O)(=O)c3ccc(Cl)cc3)cc2c1` [Compound C125], under setting [1], the “Firefly, cmpd/DMSO repeat 1” value is reported as 28.0 and the “Firefly, cmpd/DMSO repeat 2” value is reported as 24.5.
Regarding `COc1ccc(NC(=O)c2ccc3oc(=O)c(S(=O)(=O)c4ccc(Cl)cc4)cc3c2)cc1` [Compound C180], under setting [1], the “Firefly, cmpd/DMSO repeat 1” value is on record as 34.0 and the “Firefly, cmpd/DMSO repeat 2” value is given as 34.5. For the same compound, under “Table 13”, the “Firefly/Renilla (NR2F6 stable, clone F4)” value amounted to 1.1; the “Firefly, NR2F6 stable (clone F4)/pGL4” value is recorded as 13.1; the “Firefly, cmpd/DMSO repeat 1” value worked out at 34.0; the “Firefly, cmpd/DMSO repeat 2” value came to 34.5.
As for `COc1cccc(S(=O)(=O)c2cc3ccc(OC)cc3oc2=O)c1` [Compound C259], under setting [1], the “Firefly, cmpd/DMSO repeat 1” value came out at 1.3 and the “Firefly, cmpd/DMSO repeat 2” value turned out to be 1.9.
For `COc1ccc(NC(=O)c2ccc3oc(=O)c(S(=O)(=O)c4ccc(Cl)cc4)cc3c2)cc1OC` [Compound C122], in that order: 4.4 and 5.7.
Turning to `Cc1ccc(S(=O)(=O)c2cc3cc(C(=O)Nc4cccc(C)c4)ccc3oc2=O)cc1` [Compound C171], under setting [1], the “Firefly, cmpd/DMSO repeat 1” value was found to be 6.4 and the “Firefly, cmpd/DMSO repeat 2” value came out at 4.2.
On the same counts, the results for `COc1ccc(NC(=O)c2ccc3oc(=O)c(S(=O)(=O)c4ccc(C)cc4)cc3c2)cc1` [Compound C178] are 15.2 and 16.9.
For `COc1ccc(NC(=O)c2ccc3oc(=O)c(S(=O)(=O)c4ccc(C)cc4)cc3c2)cc1OC` [Compound C121], in that order: 9.0 and 21.5.
`O=C(Nc1cccc(Cl)c1)c1ccc2oc(=O)c(S(=O)(=O)c3ccc(F)cc3)cc2c1` [Compound C128]: under setting [1], the “Firefly, cmpd/DMSO repeat 1” value is given as 1.7 and the “Firefly, cmpd/DMSO repeat 2” value was found to be 5.2.
For `O=c1oc2ccc(Br)cc2cc1S(=O)(=O)c1ccccc1F` [Compound C219], in that order: 1.3 and 2.5.
Regarding `Cc1ccc(S(=O)(=O)c2cc3cc(Br)cc(Br)c3oc2=O)cc1C` [Compound C285], for the setting “Table 11”, the “Firefly, cmpd/DMSO repeat 1” value came to 1.0 and the “Firefly, cmpd/DMSO repeat 2” value turned out to be 1.0.
As for `COc1ccc2cc(S(=O)(=O)c3ccc(C)c(C)c3)c(=O)oc2c1` [Compound C270], under setting [1], the “Firefly, cmpd/DMSO repeat 1” value was found to be 3.2 and the “Firefly, cmpd/DMSO repeat 2” value is listed as 3.1.
